According to US10450271B2 (priority 2014, dated 2019):

Legend:
Aspergillus parasiticus = format: cell-based
Fusarium graminearum = format: cell-based; conditions: ethanol as solvent; 500 uL medium lyophilized; HPLC can detect down to ng/sample

Row | SMILES | reduction of aflatoxin levels (Aspergillus parasiticus; 25 ppm, liquid culture, TLC analysis) | lowest effective concentration for reducing aflatoxin levels (Aspergillus parasiticus; liquid culture, TLC analysis) | DON detection by HPLC analysis (Fusarium graminearum) | effect on aflatoxin accumulation in culture (in words) (Aspergillus parasiticus)
1 | COc1cc(/C=C/C(=O)N2CCCCC2=O)ccc1O [Compound 3, (E)-1-(3-(4-hydroxy-3-methyoxyphenyl)acryloyl)piperidin-2-one] | up to 80% | 25 ppm | not detected | –
2 | CCC=CCC=CCC=CCCCCCCCC(=O)N1CCCCC1 [Compound 7] | – | – | not detected | reduced aflatoxin accumulation in culture, but the effect was inconsistent from one trial to the next
3 | COc1cc(/C=C/C(=O)N2CCCCC2)ccc1O [Compound 1] | – | – | some DON was detected | –
4 | COc1cc(/C=C/C(=O)N2CCCC2)ccc1O [Compound 2] | – | – | some DON was detected | –
